Experimental data published in the CheMixHub ionic liquid set.
± gives the uncertainty stated by the source.

Test: xn = mol fraction of the nth substance listed

CC[n+]1ccn(C)c1.CS(=O)(=O)[O-] + O
100 kPa, frequency 0.003 MHz
Settings | electrical conductivity [S/m]
293.15 K, x1 = 0.0165 | 3.25 ± 0.066
303.15 K, x1 = 0.1122 | 4.74 ± 0.095
313.15 K, x1 = 0.3752 | 2.25 ± 0.045
323.15 K, x1 = 0.0489 | 8.42 ± 0.17
323.15 K, x1 = 0.2034 | 5.15 ± 0.1
323.15 K, x1 = 0.3752 | 2.92 ± 0.059
323.15 K, x1 = 0.9339 | 0.827 ± 0.017
343.15 K, x1 = 0.0165 | 7.59 ± 0.15
343.15 K, x1 = 0.0489 | 11.4 ± 0.23
353.15 K, x1 = 0.0165 | 8.61 ± 0.17
353.15 K, x1 = 0.0489 | 13 ± 0.26
353.15 K, x1 = 0.3752 | 5.32 ± 0.11
353.15 K, x1 = 0.9339 | 2.01 ± 0.04

Settings | viscosity [mPa·s]
293.15 K, 100 kPa, x1 = 0.0674 | 3.026 ± 0.042
298.15 K, 102.2 kPa, x1 = 0.75 | 42.2 ± 2.9
303.15 K, 100 kPa, x1 = 0.0177 | 1.135 ± 0.015
303.15 K, 100 kPa, x1 = 0.9357 | 115 ± 2.6
303.15 K, 102.2 kPa, x1 = 0.75 | 34.3 ± 2.3
313.15 K, 100 kPa, x1 = 0.0357 | 1.237 ± 0.017
313.15 K, 100 kPa, x1 = 0.1089 | 3.068 ± 0.043
313.15 K, 102.2 kPa, x1 = 0.75 | 24 ± 1.6
323.15 K, 100 kPa, x1 = 0.0177 | 0.756 ± 0.01
323.15 K, 100 kPa, x1 = 0.0357 | 1.012 ± 0.014
323.15 K, 100 kPa, x1 = 0.4263 | 12.22 ± 0.2
328.15 K, 102.2 kPa, x1 = 0.75 | 15.7 ± 1.1
353.15 K, 100 kPa, x1 = 0.0674 | 0.879 ± 0.012
353.15 K, 100 kPa, x1 = 0.1848 | 2.346 ± 0.033

C[n+]1ccn(CCCCCn2cc[n+](C)c2)c1.O=S(=O)([N-]S(=O)(=O)C(F)(F)F)C(F)(F)F.O=S(=O)([N-]S(=O)(=O)C(F)(F)F)C(F)(F)F + CN1CCCC1=O
viscosity [mPa·s], 101 kPa
Settings | 293.15 K | 303.15 K | 313.15 K | 323.15 K | 333.15 K
x1 = 0.3841 | 153.6 ± 6.3 | 96 ± 2.9 | 60.8 ± 1.4 | 41.6 ± 1 | 25.6 ± 0.6
x1 = 0.5551 | 349 ± 23 | 188.8 ± 8.7 | 118.4 ± 4.1 | 76.8 ± 2 | 51.2 ± 1.1
x1 = 1 | 1123 ± 120 | 557 ± 45 | 310 ± 19 | 188.8 ± 8.7 | 121.6 ± 4.3

CCCC[n+]1ccn(C)c1.N#C[S-] + [Br-].[Li+] + CN1CCCC1=O
298.15 K, 101 kPa
Settings | viscosity [mPa·s]
x1 = 0.001086, x2 = 0.02623 | 2.384 ± 0.029
x1 = 0.001092, x2 = 0.05108 | 3.161 ± 0.037
x1 = 0.001138, x2 = 0.07527 | 4.38 ± 0.051
x1 = 0.002508, x2 = 0.07516 | 4.412 ± 0.051
x1 = 0.002857, x2 = 0.02618 | 2.408 ± 0.029
x1 = 0.003083, x2 = 0.05098 | 3.197 ± 0.038
x1 = 0.004195, x2 = 0.07504 | 4.452 ± 0.051
x1 = 0.004231, x2 = 0.02614 | 2.429 ± 0.029
x1 = 0.004315, x2 = 0.05092 | 3.225 ± 0.038
x1 = 0.005622, x2 = 0.05085 | 3.261 ± 0.038
x1 = 0.005708, x2 = 0.02611 | 2.45 ± 0.03
x1 = 0.006129, x2 = 0.07489 | 4.48 ± 0.052
x1 = 0.007405, x2 = 0.02606 | 2.464 ± 0.03
x1 = 0.007466, x2 = 0.07479 | 4.509 ± 0.052
x1 = 0.007731, x2 = 0.05075 | 3.29 ± 0.039
x1 = 0.008848, x2 = 0.07469 | 4.531 ± 0.052
x1 = 0.008873, x2 = 0.02602 | 2.492 ± 0.03
x1 = 0.009097, x2 = 0.05068 | 3.316 ± 0.039
x1 = 0.01032, x2 = 0.07458 | 4.563 ± 0.053
x1 = 0.01035, x2 = 0.02598 | 2.521 ± 0.03
x1 = 0.01065, x2 = 0.0506 | 3.345 ± 0.039
x1 = 0.01201, x2 = 0.02594 | 2.555 ± 0.031
x1 = 0.01214, x2 = 0.05052 | 3.376 ± 0.04
x1 = 0.01216, x2 = 0.07444 | 4.604 ± 0.053

CCCN + CC(C)(C)O + CCCCCC[n+]1ccn(C)c1.F[B-](F)(F)F
298.15 K, 101 kPa
Settings | viscosity [mPa·s]
x2 = 0.0474, x1 = 0.3489 | 46.28 ± 0.97
x2 = 0.0483, x1 = 0.4517 | 28.58 ± 0.49
x2 = 0.05, x1 = 0.0708 | 120.9 ± 4.6
x2 = 0.05, x1 = 0.8998 | 0.723 ± 0.007
x2 = 0.0508, x1 = 0.2562 | 66.1 ± 1.6
x2 = 0.0508, x1 = 0.8482 | 1.318 ± 0.013
x2 = 0.0525, x1 = 0.7484 | 3.959 ± 0.042
x2 = 0.0529, x1 = 0.6504 | 8.74 ± 0.1
x2 = 0.055, x1 = 0.5488 | 16.3 ± 0.23
x2 = 0.0572, x1 = 0.1668 | 88.1 ± 2.7
x2 = 0.1042, x1 = 0.1719 | 73.7 ± 2
x2 = 0.1487, x1 = 0.0497 | 96.6 ± 3.1
x2 = 0.1555, x1 = 0.1488 | 66.7 ± 1.7
x2 = 0.247, x1 = 0.0423 | 72.1 ± 1.9
x2 = 0.251, x1 = 0.3468 | 15.17 ± 0.21
x2 = 0.3138, x1 = 0.0592 | 53 ± 1.2
x2 = 0.3494, x1 = 0.5505 | 1.808 ± 0.018
x2 = 0.3508, x1 = 0.5993 | 1.244 ± 0.012
x2 = 0.3529, x1 = 0.349 | 7.072 ± 0.087
x2 = 0.3545, x1 = 0.4468 | 2.923 ± 0.03
x2 = 0.3596, x1 = 0.0184 | 53.2 ± 1.2
x2 = 0.4492, x1 = 0.1454 | 18.61 ± 0.28
x2 = 0.4496, x1 = 0.0492 | 32.35 ± 0.59
x2 = 0.6483, x1 = 0.1509 | 7.984 ± 0.092
x2 = 0.6496, x1 = 0.2508 | 4.06 ± 0.043
x2 = 0.6511, x1 = 0.299 | 2.994 ± 0.03
x2 = 0.6551, x1 = 0.0445 | 15.43 ± 0.21
x2 = 0.7929, x1 = 0.1032 | 7.67 ± 0.087
x2 = 0.8001, x1 = 0.15 | 5.198 ± 0.056
x2 = 0.8965, x1 = 0.0518 | 7.226 ± 0.081

CC[n+]1ccn(C)c1.CS(=O)(=O)[O-] + CC[n+]1ccn(C)c1.N#C[S-] + O
viscosity [mPa·s], 100 kPa
Settings | 298.15 K | 323.15 K
x2 = 0, x1 = 1 | 166.9 ± 4.2 | 46.66 ± 0.95
x2 = 0.03875, x1 = 0.1179 | 5.47 ± 0.11 | 2.895 ± 0.06
x2 = 0.0437, x1 = 0.133 | 6.29 ± 0.13 | 3.29 ± 0.07
x2 = 0.04778, x1 = 0.1454 | 6.96 ± 0.14 | 3.598 ± 0.074
x2 = 0.04973, x1 = 0.05117 | 2.902 ± 0.06 | 1.645 ± 0.034
x2 = 0.07374, x1 = 0.07586 | 4.308 ± 0.088 | 2.366 ± 0.049
x2 = 0.08472, x1 = 0.2579 | 14.08 ± 0.29 | 6.86 ± 0.14
x2 = 0.09552, x1 = 0.09828 | 5.65 ± 0.12 | 3.039 ± 0.062
x2 = 0.132, x1 = 0.4018 | 27.86 ± 0.57 | 12.33 ± 0.25
x2 = 0.1688, x1 = 0.1737 | 10.72 ± 0.22 | 5.46 ± 0.11
x2 = 0.1857, x1 = 0.5652 | 56.4 ± 1.1 | 21.34 ± 0.43
x2 = 0.1882, x1 = 0.06242 | 5.9 ± 0.12 | 3.31 ± 0.07
x2 = 0.2473, x1 = 0.7527 | 102.6 ± 2.3 | 32.99 ± 0.67
x2 = 0.2641, x1 = 0.2717 | 19.62 ± 0.4 | 9.31 ± 0.19
x2 = 0.3704, x1 = 0.3811 | 35.52 ± 0.72 | 15.09 ± 0.31
x2 = 0.3722, x1 = 0.1235 | 12.81 ± 0.26 | 6.61 ± 0.13
x2 = 0.4929, x1 = 0.5071 | 63.5 ± 1.3 | 23.49 ± 0.48
x2 = 0.5588, x1 = 0.1854 | 23.25 ± 0.47 | 10.99 ± 0.22
x2 = 0.7509, x1 = 0.2491 | 38.43 ± 0.78 | 16.41 ± 0.33

CC(=O)[O-].CC[n+]1ccn(C)c1 + [N-]=C=S.[NH4+]
313.15 K, 101 kPa, x2 = 0
Settings | electrical conductivity [S/m] | viscosity [mPa·s]
– | 0.6 ± 0.019 | 56.4 ± 1.5

O=S1(=O)CCCC1 + CCCC[N+]1(C)CCCC1.O=S(=O)([N-]S(=O)(=O)C(F)(F)F)C(F)(F)F
101.33 kPa, x2 = 0.5
Settings | viscosity [mPa·s]
303.15 K | 25.8 ± 5.2
313.15 K | 18.6 ± 3.8
323.15 K | 12.9 ± 2.6
333.15 K | 9.7 ± 2
343.15 K | 8 ± 1.6
353.25 K | 6.7 ± 1.4

CCCCc1n(S(=O)(=O)O)cc[n+]1S(=O)(=O)O.O=C([O-])C(F)(F)F + CC#N
101 kPa
Settings | electrical conductivity [S/m]
278.15 K, x1 = 0.02551 | 1.24 ± 0.025
283.15 K, x1 = 0.02551 | 1.19 ± 0.024
288.15 K, x1 = 0.02551 | 1.07 ± 0.021
293.15 K, x1 = 0.02551 | 0.944 ± 0.019
298.15 K, x1 = 0.0052 | 0.359 ± 0.007
298.15 K, x1 = 0.0104 | 0.425 ± 0.009
298.15 K, x1 = 0.0155 | 0.554 ± 0.011
298.15 K, x1 = 0.0205 | 0.632 ± 0.013
298.15 K, x1 = 0.0255 | 0.899 ± 0.018
298.15 K, x1 = 0.02551 | 0.899 ± 0.018
303.15 K, x1 = 0.02551 | 0.665 ± 0.013
308.15 K, x1 = 0.02551 | 0.646 ± 0.013
313.15 K, x1 = 0.02551 | 0.545 ± 0.011
318.15 K, x1 = 0.02551 | 0.521 ± 0.01
323.15 K, x1 = 0.02551 | 0.468 ± 0.009
328.15 K, x1 = 0.02551 | 0.457 ± 0.009
333.15 K, x1 = 0.02551 | 0.423 ± 0.008

CC[n+]1ccn(C)c1C.O=S(=O)([N-]S(=O)(=O)C(F)(F)F)C(F)(F)F + O=C1CCCO1
100 kPa, frequency 0.005 MHz
Settings | electrical conductivity [S/m]
293.15 K, x2 = 0.3071 | 0.628 ± 0.019
293.15 K, x2 = 0.7999 | 1.36 ± 0.041
293.15 K, x2 = 0.9507 | 0.925 ± 0.031
298.15 K, x2 = 0 | 0.383 ± 0.012
298.15 K, x2 = 0.6999 | 1.42 ± 0.043
298.15 K, x2 = 0.7999 | 1.52 ± 0.046
308.15 K, x2 = 0.4996 | 1.34 ± 0.04
308.15 K, x2 = 0.8999 | 1.72 ± 0.053
313.15 K, x2 = 0.8999 | 1.84 ± 0.056
318.15 K, x2 = 0.4996 | 1.69 ± 0.051
323.15 K, x2 = 0 | 0.92 ± 0.028
323.15 K, x2 = 0.0999 | 1.07 ± 0.032
323.15 K, x2 = 0.5987 | 2.02 ± 0.061
323.15 K, x2 = 0.8474 | 2.3 ± 0.069
323.15 K, x2 = 0.9507 | 1.4 ± 0.046
